Among the data in ChEMBL document CHEMBL1130896, “Nucleosides and nucleotides. 176. 2'-Deoxy-2'-hydroxylaminocytidine: a new antitumor nucleoside that inhibits DNA synthesis although it has a ribonucleoside structure” (Bioorg Med Chem Lett, 1998) are Inhibition and IC50 values, retold here.

Assay [1] concerns L1210. In words: In vitro antitumor activity using the incorporation of thymidine and uridine into DNA of L1210 cells at time 3 hr. The format is functional, Mus musculus.
Assay [2] relates to L1210. The assay is described as follows: In vitro antitumor activity using the incorporation of thymidine and uridine into RNA of L1210 cells at time 1 hr. It counts as functional, Mus musculus.
The next assay relates to HL-60. In words: In vitro antitumor activity against HL-60 cell line extracted formpromyelocytic leukemia. The conditions noted are these: Homo sapiens. It counts as functional, cell-based.
Another assay deals with Huh-7. In words: In vitro antitumor activity against HuH7 cell line extracted form hepatoma. It counts as functional, cell-based. The settings on record: Homo sapiens.
In assay [3] the test system is L1210. The assay is described as follows: In vitro antitumor activity using the incorporation of thymidine and uridine into RNA of L1210 cells at time 2 hr. It counts as functional, Mus musculus.
Another assay deals with MCF7. In words: In vitro antitumor activity against MCF-7 cell line extracted form mammary carcinoma. It counts as functional, cell-based. The settings on record: Homo sapiens.
In a further assay the test system is K562. The assay is described as follows: In vitro antitumor activity against K562 cell line extracted formchronic myelogenous leukemia. The format is functional, cell-based. The conditions noted are these: Homo sapiens.
The test system of the next assay is HT-1080. The assay is described as follows: In vitro antitumor activity against HT1080 cell line extracted form fibrosarcoma. The format is functional, cell-based. The conditions noted are these: Homo sapiens.
The next assay relates to CCRF-CEM. The assay is described as follows: In vitro antitumor activity against CCRF-CEM cell line extracted form acute lymphoblastic leukemia. The format is functional, cell-based. The settings on record: Homo sapiens.
For another assay, the system named is A-375. In words: In vitro antitumor activity against A375cell line extracted form melanoma. The conditions noted are these: Homo sapiens. It counts as functional, cell-based.
Another assay deals with MIA PaCa-2. The assay is described as follows: In vitro antitumor activity against MiaPaCa-2 cell line extracted form pancreas adenocarcinoma. The format is functional, cell-based. The settings on record: Homo sapiens.
Assay [4] has as its system L1210. The assay is described as follows: In vitro antitumor activity using the incorporation of thymidine and uridine into DNA of L1210 cells at time 1 hr. The format is functional, Mus musculus.
Another assay deals with COLO 320DM. In words: In vitro antitumor activity against COLO 320DM cell line extracted form colon adenocarcinoma. It counts as functional, cell-based. The settings on record: Homo sapiens.
Assay [5] has as its system L1210. In words: In vitro antitumor activity using the incorporation of thymidine and uridine into RNA of L1210 cells at time 3 hr. It counts as functional, Mus musculus.
A further assay relates to PANC-1. The assay is described as follows: In vitro antitumor activity against PANC cell line extracted form pancreas adenocarcinoma. The format is functional, cell-based. The conditions noted are these: Homo sapiens.
For assay [6], the system named is L1210. In words: In vitro antitumor activity using the incorporation of thymidine and uridine into DNA of L1210 cells at time 2 hr. It counts as functional, Mus musculus.

By Inhibition is commonly meant the change of the read-out against control, counted positive when it falls. Lower therefore signals little suppression. One may read the IC50 as the concentration at which inhibition is half-maximal. Read a high IC50 as weaker potency. Consider `Nc1ccn(C2OC(CO)[C@@H](O)[C@H]2NO)c(=O)n1` (stereo partly specified), for which the Inhibition is 95% with L1210 [1]; 21% in the assay on L1210 [2]; 20% with L1210 [3]; 83% with L1210 [4]; 23% in the assay with L1210 [5]; 98% in the assay on L1210 [6]. The IC50 came out at 5760 nM in the assay with HL-60; 1470 nM in the assay on Huh-7; 1300 nM with MCF7; 2770 nM in the assay on K562; 2530 nM in the assay with HT-1080; 1730 nM with CCRF-CEM. Further, the IC50 came out at 890 nM in the assay on A-375, 4000 nM in the assay on MIA PaCa-2, 8930 nM in the assay with COLO 320DM and 69100 nM with PANC-1.
